According to US11466273B2, “Monocarboxylate transporter 4 (MCT4) antisense oligonucleotide (ASO) inhibitors for use as therapeutics in the treatment of cancer” (THE UNIVERSITY OF BRITISH COLUMBIA, priority 2015, dated 2022):
Like-named read-outs stand apart in the source and are kept apart here.

How the values were obtained:
PC3 cells = assay: Combination screening, total live PC3 cell numbers; format: cell-based, human; settings: approximate IC50 used for combination screening, 48 hours, read-out: IC50 Concentration
From the text: Human PC-3 and DU145 CRPC cells, human LNCaP prostate cancer cells, and mouse TRAMPC2 prostate cancer cells were purchased from the American Type Culture Collection (ATCC); C4-2 CRPC cells were from the Vancouver Prostate Centre, Vancouver, BC, Canada. Human monolayer cultures were maintained in RPMI-1640 (GE Healthcare Hyclone™, Logan, Utah) supplemented with 10% fetal bovine serum (FBS) (GE Healthcare Hyclone™, Logan, Utah) while TRAMPC2 cells were maintained in DMEM (GE Healthcare Hyclone™, Logan, Utah) supplemented with 5% FBS. For cell counting, cells were trypsinized to form a single cell suspension and counted using a TC20 Automated Cell Counter (Bio-Rad, Hercules, Calif.). Cell viability was assessed by trypan blue exclusion.
Various combination strategies were screened at the approximate IC50 concentrations to determine whether synergistic effects may be found by combining current cancer therapeutics (see TABLE D) with MCT4 ASO SEQ ID NO:5. In FIGS. 10 A-C, the total live PC3 cell numbers were assessed 48 hours after treatment with Metformin, Doxycycline and docetaxel both alone and in combination with MCT4 ASO SEQ ID NO:5.

PC-3 cells [1] = assay: PC-3 cell proliferation after ASO/siRNA transfection; format: cell-based, human; settings: for inhibition of PC-3 cell proliferation, screening of ten MCT4 ASOs: 100 nM, 48 hours; for inhibition of cell proliferation, time course: 96 hours post-transfection; for IC50: transfection of 5 nM to 200 nM, read-out: IC50 inhibition of PC-3 cell proliferation
Description: (§1) Cell viability was assessed by trypan blue exclusion.
(§2) Cells were transfected in 6-well plates with ASOs at 100 nM for 48 hours (unless otherwise indicated) using Oligofectamine™ (Invitrogen™, Carlsbad, Calif.) or with MCT4-targeting siRNAs and controls (Dharmacon™, Chicago, Ill.) at 50 nM for 48 hours using Lipofectamine™ 2000 (Invitrogen™), following the manufacturer's instructions.

MCT4 mRNA = assay: MCT4 expression (mRNA, protein) in PC-3 cells after ASO transfection; format: cell-based, human; settings: for MCT4 protein levels, time course: 96 hours; for inhibition of MCT4 expression, screening of ten MCT4 ASOs: qPCR and Western blot, 48 hours; for IC50: transfection of 5 nM to 200 nM, read-out: IC50 reduction of MCT4 mRNA levels
Description: as §2
(§3) Total RNA was isolated using the RNeasy Mini Kit™ (Qiagen Inc.™, Hilden, Germany) and cDNA synthesized using the QuantiTect Reverse Transcription Kit™ (Qiagen™). Primers were designed using Primer-BLAST™. qRT-PCR reactions using KAPA SYBR Fast Universal™ (Kapa Biosystems™, Woburn, Mass.) were performed in triplicate in a ViiA 7 Real-Time PCR™ system (Applied Biosystems™, Foster City, Calif.). Target genes were normalized to a geometric average of 3 internal reference genes (Vandesompele et al., 2002).
Cells were harvested and lysed in RIPA buffer (50 mM Tris-Cl pH 7.4, 150 mM NaCl, 1% Igepal, 0.5% Na-deoxycholate, 0.1% SDS) supplemented with a complete protease inhibitor cocktail (Roche, Nutley, N.J.). The protein concentration of the lysate was determined by Pierce BCA Protein Assay™ (Thermo Scientific™, Waltham, Mass.). The lysate was run on 8% SDS polyacrylamide gel (20 ug of protein per lane) and proteins were transferred onto PVDF membrane (Millipore™, Billerica, Mass.). The blot was blocked with the Odyssey™ blocking buffer (Li-cor Biosciences™) and probed with anti-MCT4 antibody. Vinculin was used as a loading control. Following overnight incubation at 4° C., the primary antibody was probed with the corresponding secondary antibody and detected using the Odyssey Infrared Imaging System™ (Li-cor Biosciences™) and Image Studio Version 3.1™ (Li-cor Biosciences™). Densitometry analysis was done using ImageJ (U.S. National Institutes of Health, Bethesda, Md.).

C4-2 CRPC cells = assay: C4-2 CRPC cell proliferation after ASO transfection; format: cell-based, human; settings: read-out: IC50 inhibition of C4-2 cell proliferation
Description: as §1, §2

MCT4 [2] = assay: MCT4 expression in C4-2 cells after ASO transfection; format: cell-based, human; settings: read-out: IC50 reduction of MCT4 expression
Description: as §2
(§4) Total RNA was isolated using the RNeasy Mini Kit™ (Qiagen Inc.™, Hilden, Germany) and cDNA synthesized using the QuantiTect Reverse Transcription Kit™ (Qiagen™). Primers were designed using Primer-BLAST™. qRT-PCR reactions using KAPA SYBR Fast Universal™ (Kapa Biosystems™, Woburn, Mass.) were performed in triplicate in a ViiA 7 Real-Time PCR™ system (Applied Biosystems™, Foster City, Calif.). […]
(§5) Cells were harvested and lysed in RIPA buffer (50 mM Tris-Cl pH 7.4, 150 mM NaCl, 1% Igepal, 0.5% Na-deoxycholate, 0.1% SDS) supplemented with a complete protease inhibitor cocktail (Roche, Nutley, N.J.). The protein concentration of the lysate was determined by Pierce BCA Protein Assay™ (Thermo Scientific™, Waltham, Mass.). […] Following overnight incubation at 4° C., the primary antibody was probed with the corresponding secondary antibody and detected using the Odyssey Infrared Imaging System™ (Li-cor Biosciences™) and Image Studio Version 3.1™ (Li-cor Biosciences™). […]

[3] = tested on: DU145 prostate cancer cells; assay: DU145 cell proliferation after ASO transfection; format: cell-based, human; settings: compared with PC-3 and C4-2
Description: as §1, §2

MCT4 [4] = assay: MCT4 expression in DU145 cells after ASO transfection; format: cell-based, human; settings: compared with PC-3 and C4-2
Description: as §2, §4, §5

[5] = tested on: TRAMPC2 prostate cancer cells; assay: TRAMPC2 cell proliferation after ASO transfection; format: cell-based, mouse; settings: up to highest tested concentration of 200 nM
Description: as §1, §2

mouse MCT4 = assay: Mouse MCT4 expression in TRAMPC2 cells after ASO transfection; format: cell-based; settings: up to 200 nM
Description: as §2, §4, §5

PC-3 cells [6] = assay: Lactate and glucose determination in PC-3 cells; format: cell-based, human; settings: after 48 hours of transfection
Description: PC-3 cells transfected with ASOs for 48 hours were assessed for lactate and glucose levels. Cells were incubated with fresh media for 4 hours. A sample of the media was then taken and deproteinated with 10K Spin Columns™ (BioVision™, Milpitas, Calif.) prior to determination of lactate concentration using Lactate Assay Kit (BioVision) and glucose concentration using Glucose Assay Kit™ (BioVision™). Intracellular lactate levels were determined by lysing ASO-transfected cells in MQH2O. Final concentrations were determined by normalizing to the total number of live cells.

PC-3 cells [7] = assay: qPCR of glycolysis and lactic acid conversion genes in PC-3 cells; format: cell-based, human
Description: as §3

[8] = tested on: subcutaneous PC-3 tumours; assay: Treatment of PC-3 tumour-bearing nude mice with MCT4 ASO; format: in vivo; settings: for host toxicity (animal weights and behaviour) / growth of PC-3 tumours: 10 mg/kg intraperitoneal; for host toxicity (animal weights and behaviour): 15 days; for growth of PC-3 tumours: daily for 5 days, 2 days off, total 15 days; for MCT4 protein expression in tumour / cell apoptosis, cleaved-caspase 3 staining / cell proliferation, Ki-67 staining: tumour tissue IHC
Description: PC-3 cells ([…] cells in 1:1 HBSS:Matrigel) were injected subcutaneously into both flanks of 24 male athymic nude mice (Simonsen Laboratories™, Gilroy, Calif.). Once the mean tumour volume had reached approximately 100 mm3, mice were randomized into four groups and treated with intraperitoneal injections of MCT4 ASO #1 (SEQ ID NO: 1), #14 (SEQ ID NO: 5), control ASO, or vehicle (PBS) at 10 mg/kg daily for 5 days followed by 2 days off treatment for a total of 15 days. The health of the mice was monitored throughout the study by measuring body weights and checking for abnormal behaviour such as lethargy, lack of hydration, and additional signs of weakness. Tumour size was measured twice weekly and tumour volume calculated using the formula: Volume=Length×width×depth×0.5236 (mm3). Mice were sacrificed 1 hour after the final dose for tissue harvesting.
Tumour tissue was formalin-fixed and paraffin-embedded for immunohistochemical analysis. Tissues were sectioned, probed, and stained with DAB (Sigma™) as previously described (Wang et al., 2005). […] For MCT4, images of five random fields at 200× magnification were taken per tumour and staining intensity was assessed by percentage scoring, using the formula: Intensity=(% area score 3)×3+(% area score 2)×2+(% area score 1)×1. The extent of immune cell aggregation was quantified following CD31 staining by imaging the five most prominent regions of aggregates per tumour at 200× magnification and determining the percent area of the field they occupied. The proportions of immune cells were evaluated as the area of positive staining normalized to the area occupied by immune cell aggregates in the same five prominent regions.

| Compound | IC50 (PC3 cells; Homo sapiens, PC-3) [µM] | inhibition of PC-3 cell proliferation, screening of ten MCT4 ASOs (PC-3 cells [1]) | inhibition of cell proliferation, time course (PC-3 cells [1]) | IC50 (PC-3 cells [1]) [µM] | MCT4 protein levels, time course (MCT4 mRNA) | inhibition of MCT4 expression, screening of ten MCT4 ASOs (MCT4 mRNA) | IC50 (MCT4 mRNA) [µM] | IC50 (C4-2 CRPC cells) [µM] | IC50 (MCT4 [2]) [µM] | inhibitory effect on DU145 cell proliferation [3] | inhibitory effect on MCT4 expression in DU145 cells (MCT4 [4]) | reduction in TRAMPC2 cell proliferation [5] | reduction in mouse MCT4 expression (mouse MCT4) | glucose consumption (PC-3 cells [6]) | intracellular lactate (PC-3 cells [6]) | lactic acid secretion (PC-3 cells [6]) | expression of glycolysis genes GAPDH, PGK1, PGAM1 and ENO1 (PC-3 cells [7]) | expression of lactate dehydrogenase A (LDHA) (PC-3 cells [7]) | expression of pyruvate dehydrogenase kinase-1 (PDK1) (PC-3 cells [7]) | host toxicity (animal weights and behaviour) [8] | other results |
| --- | --- | --- | --- | --- | --- | --- | --- | --- | --- | --- | --- | --- | --- | --- | --- | --- | --- | --- | --- | --- | --- |
| CN(C)C(=N)N=C(N)N [Metformin] | 4000 |  |  |  |  |  |  |  |  |  |  |  |  |  |  |  |  |  |  |  |  |
| CC(=O)O[C@@]12CO[C@@H]1C[C@H](O)[C@@]1(C)C(=O)[C@H](O)C3=C(C)[C@@H](OC(=O)[C@H](O)[C@@H](NC(=O)OC(C)(C)C)c4ccccc4)C[C@@](O)([C@@H](OC(=O)c4ccccc4)[C@H]21)C3(C)C [Docetaxel] | 0.0025 |  |  |  |  |  |  |  |  |  |  |  |  |  |  |  |  |  |  |  |  |
| TCCCATGGCCAGGAGGGTTG (chemistry not given here; listed as Homo sapiens) [SEQ ID No. 1] |  | greatest potency | maintained the inhibition of cell proliferation | 0.05 | remained low | greatest potency | 0.05 | 0.04 | 0.05 | almost identical IC50 values | almost identical IC50 values | did not lead to a significant reduction | did not lead to a significant reduction | extensive decrease | accumulation | marked inhibition | down regulation | depressed | decreased expression | without inducing major host toxicity | growth of PC-3 tumours [8]: markedly inhibited; MCT4 protein expression in tumour [8]: decrease in MCT4 protein expression; cell apoptosis, cleaved-caspase 3 staining [8]: increase in cell apoptosis; cell proliferation, Ki-67 staining [8]: decrease in cell proliferation |
| AGATGCAGAAGACCACGAGG (chemistry not given here; listed as Homo sapiens) [SEQ ID No. 5] |  | greatest potency | maintained the inhibition of cell proliferation | 0.026 | remained low | greatest potency | 0.032 | 0.027 | 0.026 | almost identical IC50 values | almost identical IC50 values | did not lead to a significant reduction | did not lead to a significant reduction | extensive decrease | accumulation | marked inhibition | down regulation | depressed | decreased expression | without inducing major host toxicity | growth of PC-3 tumours [8]: markedly inhibited; MCT4 protein expression in tumour [8]: decrease in MCT4 protein expression; cell apoptosis, cleaved-caspase 3 staining [8]: increase in cell apoptosis; cell proliferation, Ki-67 staining [8]: decrease in cell proliferation; IC50 (PC3 cells): 0.05 µM |
| C[C@H]1c2cccc(O)c2C(=O)C2=C(O)[C@]3(O)C(=O)C(C(N)=O)=C(O)[C@@H](N(C)C)[C@@H]3[C@@H](O)[C@@H]21 [Doxycycline] | 15 |  |  |  |  |  |  |  |  |  |  |  |  |  |  |  |  |  |  |  |  |
